Legend:
Assay type in all cases: functional, Homo sapiens
Set-up in all cases: dose or concentration left out as unconfirmed
Colon cancer organoid [1] = experiment: Identification of compartment-specific drug sensitivities in O06 CRC organoid-stroma F06 CAF co-cultures. Organoid is transduced with Lucferase2-P2A-EGFP lentivirus, fibroblast with Renilla-dsRed lentivirus. Dual-Glo Luciferase assay is used to report viability data.
Colon cancer organoid [2] = experiment: Identification of compartment-specific drug sensitivities in O14 CRC organoid-stroma F14 CAF co-cultures. Organoid is transduced with Lucferase2-P2A-EGFP lentivirus, fibroblast with Renilla-dsRed lentivirus. Dual-Glo Luciferase assay is used to report viability data.
Colon cancer organoid [3] = experiment: Identification of compartment-specific drug sensitivities in O20 CRC organoid-stroma F20 CAF co-cultures. Organoid is transduced with Lucferase2-P2A-EGFP lentivirus, fibroblast with Renilla-dsRed lentivirus. Dual-Glo Luciferase assay is used to report viability data.
[4] = Transduced with Lucferase2-P2A-EGFP lentivirus
[5] = Transduced with Renilla-dsRed lentivirus

Row | SMILES | Cell Viability (Colon cancer organoid [1]; [4]) [%] | Cell Viability (Colon cancer organoid [1]; [5]) [%] | Cell Viability (Colon cancer organoid [2]; [4]) [%] | Cell Viability (Colon cancer organoid [2]; [5]) [%] | Cell Viability (Colon cancer organoid [3]; [4]) [%] | Cell Viability (Colon cancer organoid [3]; [5]) [%]
1 | NS(=O)(=O)c1cc(NC(=O)Cc2ccccc2)ccc1Oc1cccc(Cl)c1 [BAY-1797] | 89.5842 | 298.319 | 92.6745 | 115.956 | 89.0927 | 86.996
2 | CCc1ccccc1C(=O)Nc1n[nH]c2c(C)c(F)c(C3C(C#N)=C(C)N(C)C(C)=C3C#N)cc12 [BAY-3827] | 43.7855 | 108.902 | 97.9341 | 94.3175 | 74.4041 | 157.673
3 | Cn1cc(Cl)c2c(Oc3c(F)cc(Nc4cc(Cl)nc(N)n4)cc3F)ccnc21 [BAY-4900] | 121.536 | 149.241 | 86.5863 | 82.0192 | 91.1614 | 109.2
4 | Cc1c(N2CCCC2)nc2ccc(Br)cc2c1C(=O)NC[C@H](CCC(=O)O)c1ccccc1Cl [BAY-6672] | 132.373 | 142.298 | 108.299 | 92.2123 | 83.1045 | 119.315
5 | COc1ccc(Oc2cc(NCCC(F)(F)F)c3ncc(-c4ccc(C(=O)NC5CC5)c(C)c4)n3n2)c(F)c1F [BAY-1217389] | 5.893 | 100.303 | 9.59 | 58.9964 | 10.0806 | 184.891
6 | CC(=O)N1CCC(c2ccc(C(=O)NC3=NCCN3)cc2C(F)(F)F)CC1 [BI 0054] | 124.071 | 95.7607 | 111.388 | 98.4803 | 121.714 | 122.015
7 | CN(C)C(=O)Cn1cc(-c2nc(C3(c4ccc(-c5cnc(N)nc5)cc4)CC3)no2)cn1 [BI 0153] | 137.539 | 73.6279 | 127.983 | 104.715 | 119.435 | 91.9766
8 | COc1ccc2c(O[C@@H]3C[C@H]4C(=O)N[C@]5(C(=O)O)CC5/C=C\CCCCC[C@H](NC(=O)OC5CCCC5)C(=O)N4C3)cc(-c3csc(NC(=O)C(C)C)n3)nc2c1C (stereo not given in full) [BI 1230] | 110.189 | 125.746 | 146.11 | 113.81 | 95.5192 | 162.279
9 | O=C(N[C@H]1CCCCC/C=C\C2C[C@@]2(C(=O)O)NC(=O)[C@@H]2C[C@@H](Oc3ccncc3)CN2C1=O)OC1CCCC1 (stereo not given in full) [BI 1675] | 164.286 | 81.7525 | 118.741 | 112.641 | 103.036 | 110.731
10 | CCOCCn1cc(C(=O)Nc2ccc(-n3nc(-c4cccnc4)cc3C(F)(F)F)cn2)ccc1=O [BI 1935] | 87.0785 | 88.003 | 82.3072 | 94.7961 | 76.3275 | 148.205
11 | C[C@H](NC(=O)c1cnc2n1[C@](C)(Cc1ccc(C#N)cc1)C(=O)N2c1cc(Cl)c(F)c(Cl)c1)C(=O)NC1(c2ccccn2)CC1 [BI 1950] | 112.036 | 408.477 | 98.1816 | 100.374 | 121.807 | 97.0159
12 | CC(C)(C#Cc1ccc(NC(=O)COc2ccccc2C(=O)c2ccccc2)c(Cl)c1)C(=O)O [BI 2439] | 97.1512 | 131.731 | 66.7268 | 62.0838 | 147.968 | 100.148
13 | Cc1c(NC(=O)COc2ccc(Cl)cc2C(=O)c2cc(F)cc(C(F)(F)F)c2)ccc(C(=O)O)c1F [BI 2540] | 104.073 | 125.125 | 85.0828 | 72.3222 | 66.158 | 145.555
14 | O=C(NC[C@@H]1[C@H]2CN(C(=O)OCc3cc(C(F)(F)F)cc(C(F)(F)F)c3)C[C@@H]12)c1ccc2[nH]nnc2c1 [BI 2545] | 82.8507 | 98.3684 | 136.863 | 113.582 | 135.058 | 115.933
15 | Cc1nccc(COC(=O)N2C[C@@H]3[C@@H](CNC(=O)c4ccc5[nH]nnc5c4)[C@@H]3C2)n1 [BI 3017] | 143.297 | 89.1244 | 148.595 | 113.357 | 107.028 | 99.2728
